Values after ≈ are worked out from the molar mass of the structure shown. Like-named read-outs stand apart in the source and are kept apart here.
What was measured:
[1] = tested on: Bacillus subtilis ATCC 6633; test: Broth microdilution MIC/MBC; conditions: ATCC6633
[2] = tested on: Staphylococcus epidermidis ATCC 12228; test: Broth microdilution MIC/MBC; conditions: ATCC12228
[3] = tested on: Bacillus cereus ATCC 10876; test: Broth microdilution MIC/MBC; conditions: Bacillus cereus, ATCC10876
[4] = tested on: Staphylococcus aureus ATCC 25923; test: Broth microdilution MIC/MBC; conditions: Staphylococcus aureus, ATCC25923
[5] = tested on: Micrococcus luteus ATCC 10240; test: Broth microdilution MIC/MBC; conditions: Micrococcus luteus, ATCC10240
[6] = tested on: Candida spp.; test: Broth microdilution, summary over reference yeasts; format: cell-based; conditions: reference yeasts from Candida spp.
Description: (§1) Procedures of in vitro antimicrobial assays are described in Supplementary Materials.
(§2) 2. Microbiology – in vitro antimicrobial activity assays […]
(§3) using the broth microdilution method according to the European Committee on Antimicrobial Susceptibility Testing (EUCAST) and Clinical and Laboratory Standards Institute guidelines against a panel of reference and clinical or saprophytic strains of mi croorganisms, including the Gram-positive bacteria: Staphylococcus aureus ATCC 43300 (Methi-cillin Resistant S. aureus – MRSA), Staphylococcus aureus ATCC 29213 (Methicillin Susceptible S. aureus – MSSA), Staph-ylococcus epidermidis ATCC 12228, Micrococcus luteus ATCC 10240, Bacillus subtilis ATCC 6633 and Bacillus cereus ATCC 10876), Gram-negative bacteria: Bordetella bronchiseptica ATCC 4617, Escherichia coli ATCC 25922, Klebsiella pneumoniae ATCC 13883, Proteus mirabilis ATCC 12453, Salmonella typhimurium ATCC 14028 and Pseudomonas aeruginosa ATCC 9027, and fungi belonging to yeasts: Candida albicans ATCC 10231, Candida albicans ATCC 2091, Candida parapsilosis ATCC 22019, Candida glabrata ATCC 90030 and Candida krusei ATCC 14243. The microorganisms belonging to ATCC originated from American Type Culture Collection, routinely used for the evaluation of antimicrobials. All the used microbial cultures were first subcultured on nutrient agar or Sabouraud agar at 35°C for 18-24 h or 30°C for 24-48 h for bacteria […]
(§4) The surface of Mueller-Hinton agar (for bacteria) and RPMI 1640 with MOPS (for fungi) were inoculated with the suspensions of bacterial or fungal species. Microbial suspensions were prepared in sterile saline with an optical density of McFarland standard scale 0.5. The samples containing the compounds were dissolved in dimethyl sulfoxide (DMSO).
(§5) Furthermore, the bacterial and fungal suspensions put onto the Petri dishes with solid media containing 2 mg/mL of the tested compounds followed were incubated at 37°C for 24h and 30°C for 48h for bacteria and fungi, respectively.
(§6) The inhibition of microbial growth was estimated comparing with a control culture prepared without any tested sam- […]
(§7) antifungal compounds, respectively.
(§8) Subsequently, MIC (Minimal Inhibitory Concentration) of the compounds was examined by the microdilution broth method, using their two-fold dilutions in Mueller-Hinton broth (for bacteria) and RPMI 1640 broth with MOPS (for fungi) prepared in the 96-well polystyrene plates. The final concentrations of the compounds ranged from 1000 to 0.488 µg/mL. Microbial suspensions were prepared in 0.85% NaCl with an optical density of 0.5 McFarland standard. Next each bacterial or fungal suspension was added per each well containing broth and various concentrations of the exam-ined compounds. After incubation, the MIC was assessed spectrophotometrically as the lowest concentration of the […]
(§9) Appropriate DMSO, growth and sterile controls were carried out. The medium with no tested substances was used as a control The MBC (Minimal Bactericidal Concentration) and MFC (Minimal Fungicidal Concentration) are defined as the lowest concentration of the compounds that is required to kill a particular bacterial or fungal species. The MBC/MFC was determined by removing the culture used for the MIC determination from each well and spotted onto the appro-priate agar medium. The plates were incubated under appropriate conditions for bacteria and fungi. The lowest com-pounds concentration with no visible growth observed was assessed as a bactericidal/fungicidal concentration. All the experiments were repeated three times and the representative data are presented.
(§10) 1. European Committee for Antimicrobial Susceptibility Testing (EUCAST) Determination of minimum inhibitory con-centrations (MICs) of antibacterial agents by broth dilution. EUCAST discussion document E. Dis 5.1. Clin. Microbiol.
(§11) 2. Clinical and Laboratory Standards Institute. Reference method for broth dilution antifungal susceptibility testing of […]

[7] = tested on: Candida glabrata ATCC 90030; test: Broth microdilution MIC/MFC; format: cell-based
Description: as §1, §2, §3, §4, §5, §6, §7, §8, §9, §10, §11

[8] = tested on: Candida krusei ATCC 14243; test: Broth microdilution MIC/MFC; format: cell-based
Description: as §1, §2, §3, §4, §5, §6, §7, §8, §9, §10, §11

[9] = tested on: Candida parapsilosis ATCC 22019; test: Broth microdilution MIC/MFC; format: cell-based
Description: as §1, §2, §3, §4, §5, §6, §7, §8, §9, §10, §11

[10] = tested on: Candida albicans ATCC 2091; test: Broth microdilution MIC/MFC; format: cell-based
Description: as §1, §2, §3, §4, §5, §6, §7, §8, §9, §10, §11

[11] = tested on: Candida albicans ATCC 10231; test: Broth microdilution MIC/MFC; format: cell-based
Description: as §1, §2, §3, §4, §5, §6, §7, §8, §9, §10, §11

[12] = tested on: Staphylococcus aureus ATCC 43300; test: Broth microdilution MIC/MBC; conditions: ATCC43300 / MRSA
[13] = tested on: Staphylococcus aureus ATCC 29213; test: Broth microdilution MIC/MBC; conditions: ATCC29213
[14] = tested on: Gram-positive bacteria; test: Broth microdilution, summary over reference Gram-positive bacteria; format: cell-based; conditions: reference Gram-positive bacteria / studied bacteria
Description: as §1, §2, §3, §4, §5, §6, §7, §8, §9, §10, §11

[15] = Nakaseomyces glabratus, ATCC90030, read-out: MIC
[16] = Pichia kudriavzevii, ATCC14243, read-out: MFC
[17] = Pichia kudriavzevii, ATCC14243, read-out: MIC
[18] = Lodderomyces parapsilosis, ATCC22019, read-out: MIC
[19] = Nakaseomyces glabratus, ATCC90030, read-out: MFC

Row | Structure (SMILES) | MIC [1] [µg/mL] | MIC [2] [µg/mL] | MIC [3] [µg/mL] | MIC [4] [µg/mL] | MIC [5] [µg/mL] | antifungal activity in words [6] | MIC [7, 15] [µg/mL] | MIC [8, 17] [µg/mL] | MIC [9, 18] [µg/mL] | MIC ([10]; ATCC2091, read-out: MIC) [µg/mL] | MFC ([11]; ATCC10231, read-out: MFC) [µg/mL] | MIC ([11]; ATCC10231, read-out: MIC) [µg/mL] | MIC [12] [µg/mL] | melting point [°C] | MIC [13] [µg/mL] | antibacterial activity in words [14] | also measured
1 | CC1(C)S[C@@H]2[C@H](NC(=O)[C@H](N)c3ccccc3)C(=O)N2[C@H]1C(=O)O [APC, ampicillin, reference compound] | 62.5 (≈ 179 µM) |  |  |  |  |  |  |  |  |  |  |  |  |  |  |  | 
2 | CO/N=C(\C(=O)N[C@@H]1C(=O)N2C(C(=O)O)=C(COC(N)=O)CS[C@H]12)c1ccco1 [CFX, cefuroxime, reference compound] | 15.6 (≈ 36.8 µM) | 0.24 (≈ 0.566 µM) | 31.2 (≈ 73.6 µM) | 0.49 (≈ 1.15 µM) | 0.98 (≈ 2.31 µM) |  |  |  |  |  |  |  |  |  |  |  | 
3 | NNC(=O)c1ccccc1I [Compound 4, 2-iodobenzohydrazide] | > 1000 | 1000 (≈ 3820 µM) | > 1000 | 500 (≈ 1910 µM) | 1000 (≈ 3820 µM) | mild activity or were inactive | > 1000 | 1000 (≈ 3820 µM) | > 1000 | > 1000 | > 1000 | 1000 (≈ 3820 µM) | > 1000 | 182 to 189 | > 1000 |  | MBC [2]: > 1000 µg/mL; MFC [8, 16]: > 1000 µg/mL; MBC [4]: > 1000 µg/mL; MBC [5]: > 1000 µg/mL
4 | O=C(N/N=C/c1cccc([N+](=O)[O-])c1O)c1ccccc1I [Compound 7, N-[(2-hydroxy-3-nitrophenyl)methylidene]-2-iodobenzohydrazide] | 1000 (≈ 2430 µM) | 125 (≈ 304 µM) | > 1000 | 500 (≈ 1220 µM) | 1000 (≈ 2430 µM) | mild activity or were inactive | > 1000 | > 1000 | > 1000 | > 1000 | > 1000 | 1000 (≈ 2430 µM) | > 1000 | 240 to 245 | > 1000 |  | MBC [2]: 1000 µg/mL (≈ 2430 µM); MBC [1]: > 1000 µg/mL; MBC [4]: > 1000 µg/mL; MBC [5]: > 1000 µg/mL
5 | CCOc1cccc(/C=N/NC(=O)c2ccccc2I)c1O [Compound 10, N-[(3-ethoxy-2-hydroxyphenyl)methylidene]-2-iodobenzohydrazide] | > 1000 | > 1000 | > 1000 | > 1000 | > 1000 | mild activity or were inactive | 1000 (≈ 2440 µM) | 1000 (≈ 2440 µM) | > 1000 | > 1000 |  | > 1000 | > 1000 | 167 to 170 | > 1000 | no antimicrobial effect | MFC [7, 19]: > 1000 µg/mL; MFC [8, 16]: > 1000 µg/mL
6 | O=C(N/N=C/c1cc(O)ccc1O)c1ccccc1I [Compound 11, N-[(2,5-dihydroxyphenyl)methylidene]-2-iodobenzohydrazide] | > 1000 | > 1000 | > 1000 | > 1000 | > 1000 | mild activity or were inactive | 1000 (≈ 2620 µM) | > 1000 | > 1000 | > 1000 | > 1000 | 1000 (≈ 2620 µM) | > 1000 | 211 to 214 | > 1000 | no antimicrobial effect | MFC [7, 19]: > 1000 µg/mL
7 | O=C(N/N=C/c1ccccc1O)c1cccc(I)c1 [Compound 16, N-[(2-hydroxyphenyl)methylidene]-3-iodobenzohydrazide] |  |  |  |  |  |  |  |  |  |  |  |  |  | 201 to 203 |  | no activity | 
8 | O=C(N/N=C/c1cccc([N+](=O)[O-])c1O)c1ccc(I)cc1 [Compound 22, N-[(2-hydroxy-3-nitrophenyl)methylidene]-4-iodobenzohydrazide] |  |  |  |  |  | no antifungal activity |  |  |  |  |  |  |  | 198 to 202 |  | No antimicrobial effect | 
9 | C[C@@H]1[C@H](O)[C@@H](C)/C=C/C=C/CC/C=C/C=C/C=C/C=C/C(O[C@H]2O[C@H](C)[C@@H](O)[C@H](N)[C@@H]2O)CC2O[C@](O)(CC(O)C(O)CCC(O)CC(O)CC(O)CC(=O)O[C@H]1C)CC(O)C2C(=O)O (some centres unmarked) [NY*, nystatin, reference compound] |  |  |  |  |  |  |  |  |  |  |  |  |  |  |  |  | MFC [7]: 0.48 µg/mL (≈ 0.518 µM); MFC/MIC [7]: 2; MIC [7]: 0.24 µg/mL (≈ 0.259 µM); MFC [8]: 0.24 µg/mL (≈ 0.259 µM); MFC/MIC [8]: 1; MIC [8]: 0.24 µg/mL (≈ 0.259 µM); MFC [9]: 0.48 µg/mL (≈ 0.518 µM); MFC/MIC [9]: 2; MIC [9]: 0.24 µg/mL (≈ 0.259 µM); MFC [10]: 0.24 µg/mL (≈ 0.259 µM); MFC/MIC [10]: 1; MIC [10]: 0.24 µg/mL (≈ 0.259 µM); MFC [11]: 0.48 µg/mL (≈ 0.518 µM); MFC/MIC [11]: 1; MIC [11]: 0.48 µg/mL (≈ 0.518 µM)
